Data published in paper PMC10150354, “Linearization of the Brevicidine and Laterocidine Lipopeptides Yields Analogues That Retain Full Antibacterial Activity” (Journal of Medicinal Chemistry, 2023).
Values after ≈ are worked out from the molar mass of the structure shown. Where a SMILES comes first, the peptide text is derived from it. [ ]: non-standard residue; d: D form. The star is where a group is joined. ξ: configuration not given here. Octanoyl(7-Me) = CC(C)CCCCCC(=O)*; Hexanoyl(4ξ-Me) = CCC(C)CCC(=O)*; dOrn = NCCC[C@@H](N)C(=O)O; Orn = NCCC[C@H](N)C(=O)O; OAll = C=CCO*

How the values were obtained:
[1] = system: E. coli ATCC 25922; type: cell-based, Escherichia coli; conditions: for Antibacterial activity (MIC) E. coli ATCC 25922: microbroth dilution per CLSI, MHB, 18 h at 37 °C, visual inspection, three technical replicates; for MIC (µg/mL) against E. coli (ATCC 25922): (Supplement 2)
Description: (§1) Linear laterocidine (LL-OH, 4) and linear brevicidine (LB-OH, 5) were first synthesized by Fmoc SPPS, starting from 2-chlorotrityl (2-CT) chloride resin. The antibacterial activity of these peptides was then compared to brevicidine (1) and laterocidine (2) using minimum inhibitory concentration (MIC)/microbroth dilution assays (Table 1). The MICs of all peptides were determined against a panel of Gram-negative and Gram-positive ESKAPE pathogens. Additionally, a strain of E. coli carrying the mcr-1 gene was included in the panel. The mcr-1 gene is a transferrable plasmid that confers resistance against colistin, a last-resort antibiotic for Gram-negative infections, by reducing the overall negative charge of lipopolysaccharide (LPS) through modification of lipid A with phosphoethanolamine. The propensity for cationic antibiotics to bind to the cell membrane is therefore reduced. This gene has been observed in more than 27 bacterial species over six continents.[26] The spread of the mcr-1 gene could render colistin ineffectual; therefore, novel antibacterials are urgently required to overcome this form of resistance.
(§2) All minimum inhibitory concentrations (MICs) were determined according to Clinical and Laboratory Standards Institute (CLSI) guidelines. Blood agar plates were inoculated with glycerol stocks of E. coli ATCC 25922, K. pneumoniae ATCC 13883, A. baumannii ATCC 17961, P. aeruginosa PAO1, and S. aureus USA300. The inoculated agar plates were then incubated for 16 h at 37 °C. Individually grown colonies were subsequently used to inoculate 5 mL aliquots of TSB that were then incubated at 37 °C with shaking at 220 rpm. E. coli 25922 MCR-1 glycerol stock was used to inoculate 5 mL of TSB supplemented with kanamycin that was then incubated for 16 h at 37 °C with shaking at 220 rpm. The next day the culture was diluted 100-fold in TSB supplemented with kanamycin and incubated at 37 °C with shaking at 220 rpm. In parallel, the lipopeptide antibiotics DMSO stocks to be assessed were serially diluted with MHB in polypropylene 96-well plates (50 μL in each well). Colistin sulfate stocks were dissolved in water before being diluted with MHB. Aliquots of the inoculated TSB were incubated until an OD600 of around 0.5 was reached. The bacterial suspensions were then diluted with MHB (2 × 10^5 CFU/mL) and added to the microplates containing the test compounds (50 μL to each well). The well plates were sealed with an adhesive membrane and after 18 h of incubation at 37 °C with shaking at 600 rpm, the wells were visually inspected for bacterial growth. MIC values reported are based on three technical replicates and defined as the lowest concentration of the compound that prevented visible growth of bacteria.

[2] = system: E. coli (MCR-1); type: cell-based, Escherichia coli; conditions: microbroth dilution per CLSI, MHB, 18 h at 37 °C, visual inspection, three technical replicates, E. coli 25922 carrying mcr-1
Description: as §1, §2

[3] = system: A. baumannii ATCC 17961; type: cell-based, Acinetobacter baumannii; conditions: microbroth dilution per CLSI, MHB, 18 h at 37 °C, visual inspection, three technical replicates
Description: as §1, §2

[4] = system: P. aeruginosa PAO1; type: cell-based, Pseudomonas aeruginosa; conditions: microbroth dilution per CLSI, MHB, 18 h at 37 °C, visual inspection, three technical replicates
Description: as §1, §2

[5] = system: S. aureus USA300; type: cell-based, Staphylococcus aureus; conditions: microbroth dilution per CLSI, MHB, 18 h at 37 °C, visual inspection, three technical replicates
Description: as §1, §2

[6] = system: K. pneumoniae ATCC 13883; type: cell-based, Klebsiella pneumoniae; conditions: microbroth dilution per CLSI, MHB, 18 h at 37 °C, visual inspection, three technical replicates
Description: as §1, §2

CC(C)CCCCCC(=O)N[C@H](CO)C(=O)N[C@H](Cc1ccc(O)cc1)C(=O)N[C@H](Cc1c[nH]c2ccccc12)C(=O)N[C@H](CCCN)C(=O)N[C@@H](CCCN)C(=O)NCC(=O)N[C@H](CCCN)C(=O)N[C@@H](Cc1c[nH]c2ccccc12)C(=O)N[C@H](C(=O)N[C@@H](C)C(=O)N[C@@H](CC(N)=O)C(=O)NCC(=O)NCC(N)=O)[C@@H](C)O [LL(Ala10)-NH2 (38)] ({Octanoyl(7-Me)}-[dS][dY][dW][dOrn][Orn]G[dOrn]WTANGG-NH2)
Antibacterial activity (MIC) E. coli ATCC 25922 [1]: >32 µg/mL | Antibacterial activity (MIC) E. coli (MCR-1) [2]: >32 µg/mL | Antibacterial activity (MIC) A. baumannii ATCC 17961 [3]: >32 µg/mL | Antibacterial activity (MIC) P. aeruginosa PAO1 [4]: 16 µg/mL | Antibacterial activity (MIC) S. aureus USA300 [5]: >32 µg/mL | Antibacterial activity (MIC) K. pneumoniae ATCC 13883 [6]: >32 µg/mL

CC[C@H](C)[C@H](NC(=O)[C@@H](NC(=O)[C@H](C)NC(=O)[C@@H](CCCN)NC(=O)CNC(=O)[C@H](CCCN)NC(=O)[C@@H](CCCN)NC(=O)[C@@H](Cc1c[nH]c2ccccc12)NC(=O)[C@@H](Cc1ccc(O)cc1)NC(=O)[C@@H](CO)NC(=O)CCCCCC(C)C)[C@@H](C)O)C(=O)N[C@@H](CC(N)=O)C(=O)NCC(=O)NCC(N)=O [LL(Ala8)-NH2 (36)] ({Octanoyl(7-Me)}-[dS][dY][dW][dOrn][Orn]G[dOrn]ATINGG-NH2)
Antibacterial activity (MIC) E. coli ATCC 25922 [1]: >32 µg/mL | Antibacterial activity (MIC) E. coli (MCR-1) [2]: >32 µg/mL | Antibacterial activity (MIC) A. baumannii ATCC 17961 [3]: >32 µg/mL | Antibacterial activity (MIC) P. aeruginosa PAO1 [4]: 32 µg/mL | Antibacterial activity (MIC) S. aureus USA300 [5]: >32 µg/mL | Antibacterial activity (MIC) K. pneumoniae ATCC 13883 [6]: >32 µg/mL

C=CCOC(=O)CC[C@H](NC(=O)[C@H](Cc1c[nH]c2ccccc12)NC(=O)[C@@H](CCCN)NC(=O)CNC(=O)[C@H](CCCN)NC(=O)[C@@H](CCCN)NC(=O)[C@@H](Cc1c[nH]c2ccccc12)NC(=O)[C@@H](Cc1ccc(O)cc1)NC(=O)[C@@H](CC(N)=O)NC(=O)CCC(C)CC)C(=O)N[C@H](C(=O)NCC(N)=O)[C@@H](C)CC (stereo partly drawn) [Δ12LB (Glu[OAll]9)-NH2 (62)] ({Hexanoyl(4ξ-Me)}-[dN][dY][dW][dOrn][Orn]G[dOrn]WE(OAll)IG-NH2)
MIC (µg/mL) against E. coli (ATCC 25922) [1]: 4 µg/mL (≈ 2.64 µM) | Antibacterial activity (MIC) E. coli ATCC 25922 [1]: 4 µg/mL | Antibacterial activity (MIC) E. coli (MCR-1) [2]: 8 µg/mL | Antibacterial activity (MIC) A. baumannii ATCC 17961 [3]: 8 µg/mL | Antibacterial activity (MIC) P. aeruginosa PAO1 [4]: 2 µg/mL | Antibacterial activity (MIC) S. aureus USA300 [5]: >32 µg/mL | Antibacterial activity (MIC) K. pneumoniae ATCC 13883 [6]: 4 µg/mL

CCC(C)CCC(=O)N[C@H](CC(N)=O)C(=O)N[C@H](Cc1ccc(O)cc1)C(=O)N[C@H](Cc1c[nH]c2ccccc12)C(=O)N[C@H](CCCN)C(=O)N[C@@H](CCCN)C(=O)NCC(=O)N[C@H](CCCN)C(=O)N[C@@H](Cc1c[nH]c2ccccc12)C(=O)N[C@@H](Cc1c[nH]c2ccccc12)C(=O)N[C@H](C(=O)NCC(N)=O)[C@@H](C)CC (stereo partly drawn) [Δ12LB (Trp9)-NH2 (56)] ({Hexanoyl(4ξ-Me)}-[dN][dY][dW][dOrn][Orn]G[dOrn]WWIG-NH2)
MIC (µg/mL) against E. coli (ATCC 25922) [1]: 4 µg/mL (≈ 2.61 µM) | Antibacterial activity (MIC) E. coli ATCC 25922 [1]: 4 µg/mL | Antibacterial activity (MIC) E. coli (MCR-1) [2]: 4 µg/mL | Antibacterial activity (MIC) A. baumannii ATCC 17961 [3]: 4 µg/mL | Antibacterial activity (MIC) P. aeruginosa PAO1 [4]: 8 µg/mL | Antibacterial activity (MIC) S. aureus USA300 [5]: 16 µg/mL | Antibacterial activity (MIC) K. pneumoniae ATCC 13883 [6]: 8 µg/mL

CCC(C)CCC(=O)N[C@H](CC(N)=O)C(=O)N[C@H](Cc1ccc(O)cc1)C(=O)N[C@H](C)C(=O)N[C@H](CCCN)C(=O)N[C@@H](CCCN)C(=O)NCC(=O)N[C@H](CCCN)C(=O)N[C@@H](Cc1c[nH]c2ccccc12)C(=O)N[C@H](C(=O)N[C@H](C(=O)NCC(=O)N[C@@H](CO)C(N)=O)[C@@H](C)CC)[C@@H](C)O (stereo partly drawn) [LB(D-Ala3)-NH2 (19)] ({Hexanoyl(4ξ-Me)}-[dN][dY][dA][dOrn][Orn]G[dOrn]WTIGS-NH2)
MIC (µg/mL) against E. coli (ATCC 25922) [1]: >32 µg/mL
